The nature of data set [1]: RNA encapsulation efficiency of LNPs (Ribogreen fluorescence assay). It counts as physicochemical. The conditions noted are these: LNP, sg:mRNA 1:1, N/P about 6, amine lipid/DSPC/cholesterol/PEG-2k-DMG 50/9/38/3; Table 2, Experiments 2-20. The protocol: A fluorescence-based assay (Ribogreen®, ThermoFisher Scientific) is used to determine total RNA concentration and free RNA. Encapsulation efficiency is calculated as (Total RNA-Free RNA)/Total RNA. LNP samples are diluted appropriately with 1× TE buffer containing 0.2% Triton-X 100 to determine total RNA or 1× TE buffer to determine free RNA. Standard curves are prepared by utilizing the starting RNA solution used to make the compositions and diluted in 1× TE buffer +/− 0.2% Triton-X 100. Diluted RiboGreen® dye (according to the manufacturer's instructions) is then added to each of the standards and samples and allowed to incubate for approximately 10 minutes at room temperature, in the absence of light. A SpectraMax M5 Microplate Reader (Molecular Devices) is used to read the samples with excitation, auto cutoff and emission wavelengths set to 488 nm, 515 nm, and 525 nm respectively. Total RNA and free RNA are determined from the appropriate standard curves.
Encapsulation efficiency is calculated as (Total RNA-Free RNA)/Total RNA. The same procedure may be used for determining the encapsulation efficiency of a DNA-based cargo component. In a fluorescence-based assay, for single-strand DNA Oligreen Dye may be used, and for double-strand DNA, Picogreen Dye. Alternatively, the total RNA concentration can be determined by a reverse-phase ion-pairing (RP-IP) HPLC method. Triton X-100 is used to disrupt the LNPs, releasing the RNA. The RNA is then separated from the lipid components chromatographically by RP-IP HPLC and quantified against a standard curve using UV absorbance at 260 nm.

Data set [2] relates to Transthyretin (TTR). The data set can be described thus: Serum TTR ELISA in mice after LNP dosing. The settings on record: guide G282 experiments; for Serum TTR % TSS: mouse serum TTR relative to TSS control; for Serum TTR: mouse serum, ELISA. It counts as in vivo, CD-1 female mice. The protocol: CD-1 female mice ranging from 6-10 weeks of age were used in each study. Animals were weighed and grouped according to body weight for preparing dosing solutions based on group average weight. LNPs were dosed via the lateral tail vein in a volume of 0.2 mL per animal (approximately 10 mL per kilogram body weight). The animals were periodically observed for adverse effects for at least 24 hours post dose. For studies measuring in vivo editing in liver, CD-1 female mice were dosed at 0.1 mg/kg unless otherwise noted. Animals were euthanized at 6 or 7 days by ex sanguination via cardiac puncture under isoflurane anesthesia. Liver tissue was collected from each animal for DNA extraction and analysis. Blood was collected into serum separator tubes or into tubes containing buffered sodium citrate for plasma as described herein. Cohorts of mice were measured for editing by Next-Generation Sequencing (NGS).
Blood was collected and the serum was isolated as indicated. The total mouse TTR serum levels were determined using a Mouse Prealbumin (Transthyretin) ELISA Kit (Aviva Systems Biology, Cat. OKIA00111). Briefly, sera were serial diluted with kit sample diluent to a final dilution of 10,000-fold for 0.1 mg/kg dose and final dilutions of 10,000-fold and of 2,500-fold for 0.3 mg/kg. This diluted sample was then added to the ELISA plates and the assay was carried out according to the manufacturer's directions.
Background: In an ELISA, binding on a coated surface is turned into a signal by an enzyme label.

Data set [3] can be described thus: Dynamic light scattering of LNPs: Z-average diameter, number average diameter, PDI. It counts as physicochemical. The settings on record: LNP, sg:mRNA 1:1, N/P about 6, 50/9/38/3; Table 2, Experiments 2-20. The protocol: Dynamic Light Scattering (“DLS”) is used to characterize the polydispersity index (“PDI”) and size of the LNPs of the present disclosure. DLS measures the scattering of light that results from subjecting a sample to a light source. PDI, as determined from DLS measurements, represents the distribution of particle size (around the mean particle size) in a population, with a perfectly uniform population having a PDI of zero.
LNP compositions are analyzed for average particle size, polydispersity index (PDI), total RNA content, encapsulation efficiency of RNA, and zeta potential. LNP compositions may be further characterized by lipid analysis, AF4-MALS, NTA, and/or cryo-EM. Average particle size and polydispersity are measured by dynamic light scattering (DLS) using a Malvern Zetasizer DLS instrument or Wyatt NanoStar. LNP samples were diluted with PBS buffer prior to being measured by DLS. Z-average diameter which is an intensity-based measurement of average particle size is reported along with number average diameter and PDI. A Malvern Zetasizer or Wyatt NanoStar instrument is also used to measure the zeta potential of the LNP. Samples are diluted 1:17 (50 μL into 800 μL) in 0.1× PBS, pH 7.4 prior to measurement.

The nature of data set [4]: pKa measurement of unformulated amine lipid (fluorescence, method of Jayaraman et al.). The class given is physicochemical. The settings on record: 100 μM in 0.1 M phosphate buffer, pH 2.0-12.0. The protocol:
The pKa of each amine lipid was determined according to the method in Jayaraman, et al. (Angewandte Chemie, 2012) with the following adaptations. […] Lipid was diluted to 100 μM in 0.1 M phosphate buffer (Boston Bioproducts) where the pH ranged from 2.0-12.0. Fluorescence intensity was measured using excitation and emission wavelengths of 321 nm and 448 nm.

The structures appear in SMILES notation.

The pKa is the pH at which an ionisable group is half protonated. A higher pKa goes with a group that holds its proton tightly.

With `CCCCC/C=C\C/C=C\CCCCCCCC(=O)OCC(COC(=O)CCC(OCCCCCCCC)OCCCCCCCC)COC(=O)OCC1CCCN1C` (stereo not drawn) [Compound 14, 3-((4,4-bis(octyloxy)butanoyl)oxy)-2-(((((1-methylpyrrolidin-2-yl)methoxy)carbonyl)oxy)methyl)propyl (9Z,12Z)-octadeca-9,12-dienoate], in data set [1], the “Encapsulation (%)” value came out at 93%. Besides, in data set [2], the “Serum TTR % TSS” value is 88% and the “Serum TTR” value came out at 908 µg/mL. In data set [3], the “Number mean (nm)” value is given as 45.18 nm, the PDI is reported as 0.091 and the “Z-avg (nm)” value was found to be 64.69 nm.
Take `CCCCC/C=C\C/C=C\CCCCCCCC(=O)OCC(COC(=O)CCC(OCCCCCCCC)OCCCCCCCC)COC(=O)OC1CCN(CC)CC1` (stereo not drawn) [Compound 17, 3-((4,4-bis(octyloxy)butanoyl)oxy)-2-(((((1-ethylpiperidin-4-yl)oxy)carbonyl)oxy)methyl)propyl (9Z,12Z)-octadeca-9,12-dienoate]: the “Encapsulation (%)” value in data set [1] is recorded as 98%. In data set [2], the “Serum TTR % TSS” value amounted to 70% and the “Serum TTR” value is 727 µg/mL. For the same compound, in data set [3], the “Number mean (nm)” value stood at 56.58 nm, the PDI worked out at 0.037 and the “Z-avg (nm)” value was 70.97 nm.
Regarding `CCCCC/C=C\C/C=C\CCCCCCCC(=O)OCC(COC(=O)CCC(OCCCCCCCC)OCCCCCCCC)COC(=O)OCCN(C)C` (stereo not drawn) [Compound 18, 3-((4,4-bis(octyloxy)butanoyl)oxy)-2-((((2-(dimethylamino)ethoxy)carbonyl)oxy)methyl)propyl (9Z,12Z)-octadeca-9,12-dienoate], the “Encapsulation (%)” value in data set [1] is listed as 97%. In data set [2], the “Serum TTR % TSS” value is given as 82% and the “Serum TTR” value was 849 µg/mL. In data set [3], the “Number mean (nm)” value is 48.22 nm, the PDI is 0.090 and the “Z-avg (nm)” value turned out to be 68.72 nm.
`CCCCC/C=C\C/C=C\CCCCCCCC(=O)OCC(COC(=O)CCC(OCCCCCCCC)OCCCCCCCC)COC(=O)OCCCN(C)CC` (stereo not drawn) [Compound 20, 3-((4,4-bis(octyloxy)butanoyl)oxy)-2-((((3-(ethyl(methyl)amino)propoxy)carbonyl)oxy)methyl)propyl (9Z,12Z)-octadeca-9,12-dienoate]: the “Encapsulation (%)” value in data set [1] is given as 96%. For the same compound, in data set [2], the “Serum TTR % TSS” value was found to be 46% and the “Serum TTR” value was 476 µg/mL. Moreover, in data set [3], the “Number mean (nm)” value is given as 64.34 nm, the PDI was 0.023 and the “Z-avg (nm)” value is reported as 79.25 nm.
As to `CCCCC/C=C\C/C=C\CCCCCCCC(=O)OCC(COC(=O)CCC(OCCCCCCCC)OCCCCCCCC)COC(=O)OCCCN(C(C)C)C(C)C` (stereo not drawn) [Compound 21, 3-((4,4-bis(octyloxy)butanoyl)oxy)-2-((((3-(diisopropylamino)propoxy)carbonyl)oxy)methyl)propyl (9Z,12Z)-octadeca-9,12-dienoate], the “Encapsulation (%)” value in data set [1] came out at 94%. For the same compound, in data set [2], the “Serum TTR % TSS” value is on record as 87% and the “Serum TTR” value was found to be 897 µg/mL. In data set [3], the “Number mean (nm)” value worked out at 59.75 nm, the PDI was determined as 0.039 and the “Z-avg (nm)” value is given as 75.41 nm.
Consider `CCCCC/C=C\C/C=C\CCCCCCCC(=O)OCC(COC(=O)CCC(OCCCCCCCC)OCCCCCCCC)COC(=O)OCCC(C)N(C)C` (stereo not drawn) [Compound 22, 3-((4,4-bis(octyloxy)butanoyl)oxy)-2-((((3-(dimethylamino)butoxy)carbonyl)oxy)methyl)propyl (9Z,12Z)-octadeca-9,12-dienoate], for which the “Encapsulation (%)” value in data set [1] amounted to 98%. In addition, in data set [2], the “Serum TTR % TSS” value is 61% and the “Serum TTR” value is 634 µg/mL. In addition, in data set [3], the “Number mean (nm)” value stood at 73.96 nm, the PDI is listed as 0.004 and the “Z-avg (nm)” value amounted to 89.43 nm.
Consider `CCCCC/C=C\C/C=C\CCCCCCCC(=O)OCC(COC(=O)CCC(OCCCCCCCC)OCCCCCCCC)COC(=O)OCCCN1CCCCCC1` (stereo not drawn) [Compound 23, 3-(((3-(azepan-1-yl)propoxy)carbonyl)oxy)-2-(((4,4-bis(octyloxy)butanoyl)oxy)methyl)propyl (9Z,12Z)-octadeca-9,12-dienoate], for which, in data set [1], the “Encapsulation (%)” value stood at 95%. Besides, in data set [2], the “Serum TTR % TSS” value is listed as 83% and the “Serum TTR” value was determined as 716 µg/mL. Further, in data set [3], the “Number mean (nm)” value amounted to 56.62 nm, the PDI was 0.068 and the “Z-avg (nm)” value is 74.78 nm.
`CCCCC/C=C\C/C=C\CCCCCCCC(=O)OCC(COC(=O)CCC(OCCCCCCCC)OCCCCCCCC)COC(=O)C1(C)CCN(C)C1` (stereo not drawn) [Compound 30, 3-((4,4-bis(octyloxy)butanoyl)oxy)-2-((((9Z,12Z)-octadeca-9,12-dienoyl)oxy)methyl)propyl 1,3-dimethylpyrrolidine-3-carboxylate] had a pKa in data set [4] of 6.06.
In data set [4], `CCCCC/C=C\C/C=C\CCCCCCCC(=O)OCC(COC(=O)CCC(OCCCCCCCC)OCCCCCCCC)COC(=O)N(C)CCN(CC)CC` (stereo not drawn) [Compound 33, 3-((4,4-bis(octyloxy)butanoyl)oxy)-2-((((2-(diethylamino)ethyl)(methyl)carbamoyl)oxy)methyl)propyl (9Z,12Z)-octadeca-9,12-dienoate] came in with a pKa of 6.03. The pKa values of the last two compounds are within 0.2 log units of each other.
On the same count and under the same terms, next, `CCCCC/C=C\C/C=C\CCCCCCCC(=O)OCC(COC(=O)CCC(OCCCCCCCC)OCCCCCCCC)COC(=O)NCCN(C)C` (stereo not drawn) [Compound 34, 3-((4,4-bis(octyloxy)butanoyl)oxy)-2-((((2-(dimethylamino)ethyl)carbamoyl)oxy)methyl)propyl (9Z,12Z)-octadeca-9,12-dienoate]: 7.84; `CCCCC/C=C\C/C=C\CCCCCCCC(=O)OCC(COC(=O)CCC(OCCCCCCCC)OCCCCCCCC)COC(=O)NCCN(C)CC` (stereo not drawn) [Compound 35, 3-((4,4-bis(octyloxy)butanoyl)oxy)-2-((((2-(ethyl(methyl)amino)ethyl)carbamoyl)oxy)methyl)propyl (9Z,12Z)-octadeca-9,12-dienoate]: 7.39; `CCCCC/C=C\C/C=C\CCCCCCCC(=O)OCC(COC(=O)CCC(OCCCCCCCC)OCCCCCCCC)COC(=O)NCC1CCN(C)C1` (stereo not drawn) [Compound 43, 3-((4,4-bis(octyloxy)butanoyl)oxy)-2-(((((1-methylpyrrolidin-3-yl)methyl)carbamoyl)oxy)methyl)propyl (9Z,12Z)-octadeca-9,12-dienoate]: 8.6.
For `CCCCC/C=C\C/C=C\CCCCCCCC(=O)OCC(COC(=O)CCC(OCCCCCCCC)OCCCCCCCC)COC(=O)NCCCN1CCC(O)CC1` (stereo not drawn) [Compound 46, 3-((4,4-bis(octyloxy)butanoyl)oxy)-2-((((3-(4-hydroxypiperidin-1-yl)propyl)carbamoyl)oxy)methyl)propyl (9Z,12Z)-octadeca-9,12-dienoate], the pKa in data set [4] was determined as 8.9.

These data come from US20220402862A1 (Intellia Therapeutics, Inc., priority 2019, published 2022).
